Here are results for 20 molecules from patent EP4803081A2.

The conditions of the data set: ester bond.

SMILES strings stand for the structures. Like-named read-outs stand apart in the source and are kept apart here.

Under “from CCn1c(-c2cc(N3CCN4CCOC[C@@H]4C3)cnc2[C@H](C)OC)c(CC(C)(C)CO)c2cc(-c3cccc(C[C@H](NC(=O)OC(C)(C)C)C(=O)N4CCC[C@@H](C(=O)O)N4)c3)ccc21, EDCI/HOBt/DIPEA, DCM, 7.56 mM, 25.0 °C, 16.0 h”, `CCn1c(-c2cc(N3CCN4CCOC[C@@H]4C3)cnc2[C@H](C)OC)c2c3cc(ccc31)-c1cccc(c1)C[C@H](NC(=O)OC(C)(C)C)C(=O)N1CCC[C@H](N1)C(=O)OCC(C)(C)C2` gave a ring closure, yield of all isomers of 81%.

For the setting “from CO[C@@H](C)c1ncc(N2CCN(C3CC3)CC2)cc1-c1c(CC(C)(C)CO)c2cc(-c3cccc(C[C@H](NC(=O)OC(C)(C)C)C(=O)N4CCC[C@@H](C(=O)O)N4)c3)ccc2n1CC(F)(F)F, EDCI/HOBt/DIPEA, DCM, 108.7 mM, 25.0 °C, 16.0 h”, `CO[C@@H](C)c1ncc(N2CCN(C3CC3)CC2)cc1-c1c2c3cc(ccc3n1CC(F)(F)F)-c1cccc(c1)C[C@H](NC(=O)OC(C)(C)C)C(=O)N1CCC[C@H](N1)C(=O)OCC(C)(C)C2` came in with a ring closure, yield of all isomers of 79%.

`CCn1c(-c2cc(N3CCN4CCCC[C@@H]4C3)cnc2[C@H](C)OC)c2c3cc(ccc31)C1=CCCN(C1)C[C@H](NC(=O)OC(C)(C)C)C(=O)N1CCC[C@H](N1)C(=O)OCC(C)(C)C2` came in with a ring closure, yield of all isomers (from CCn1c(-c2cc(N3CCN4CCCC[C@@H]4C3)cnc2[C@H](C)OC)c(CC(C)(C)CO)c2cc(C3=CCCN(C[C@H](NC(=O)OC(C)(C)C)C(=O)N4CCC[C@@H](C(=O)O)N4)C3)ccc21, EDC•HCl/HOBt/DIPEA, DCM, 11.3 mM, 0.0 °C, 16.0 h) of 66%.

As for `CC1(C)COC(=O)[C@@H]2CCCN(N2)C(=O)[C@@H](NC(=O)OC(C)(C)C)Cc2cccc(c2)-c2ccc3[nH]c(I)c(c3c2)C1`, under “from CC(C)(CO)Cc1c(I)[nH]c2ccc(-c3cccc(C[C@H](NC(=O)OC(C)(C)C)C(=O)N4CCC[C@@H](C(=O)O)N4)c3)cc12, EDCI/HOBt/DIPEA, DCM, 12.77 mM, 0.0 °C, 16.0 h”, the ring closure, yield of all isomers worked out at 79.8%.

Regarding `CCn1c(-c2cc(N3CCN4CCOC[C@@H]4C3)cnc2[C@H](C)OC)c2c3cc(ccc31)C1=CCCN(C1)C[C@H](NC(=O)OC(C)(C)C)C(=O)N1CCC[C@H](N1)C(=O)OCC(C)(C)C2`, the ring closure, yield of all isomers (from CCn1c(-c2cc(N3CCN4CCOC[C@@H]4C3)cnc2[C@H](C)OC)c(CC(C)(C)CO)c2cc(C3=CCCN(C[C@H](NC(=O)OC(C)(C)C)C(=O)N4CCC[C@@H](C(=O)O)N4)C3)ccc21, EDC·HCl/HOBt/DIPEA, DCM, 11.3 mM, 0.0 °C, 2.0 h) stood at 67%.

Under “from CO[C@@H](C)c1ncc(N2CCN(C3CC3)CC2)cc1-c1c(CC(C)(C)CO)c2cc(N3CCO[C@@H](C[C@H](NC(=O)OC(C)(C)C)C(=O)N4CCC[C@@H](C(=O)O)N4)C3)ccc2n1CC(F)(F)F, EDCI/HOBt/DIPEA, DCM, 9.22 mM, 25.0 °C, 16.0 h”, `CO[C@@H](C)c1ncc(N2CCN(C3CC3)CC2)cc1-c1c2c3cc(ccc3n1CC(F)(F)F)N1CCO[C@@H](C[C@H](NC(=O)OC(C)(C)C)C(=O)N3CCC[C@H](N3)C(=O)OCC(C)(C)C2)C1` returned a ring closure, yield of all isomers of 64%.

With `CCn1c(-c2cccnc2[C@H](C)OC)c2c3cc(ccc31)-c1csc(n1)C[C@H](NC(=O)OC(C)(C)C)C(=O)N1CCC[C@H](N1)C(=O)OCC(C)(C)C2`, under “from CCn1c(-c2cccnc2[C@H](C)OC)c(CC(C)(C)CO)c2cc(-c3csc(C[C@H](NC(=O)OC(C)(C)C)C(=O)N4CCC[C@@H](C(=O)O)N4)n3)ccc21, EDCI/HOBt/DIPEA, DCM, 12.65 mM, 25.0 °C, 16.0 h”, the ring closure, yield of all isomers came to 81%.

As to `CCn1c(-c2cc(N3CCN4CCCC[C@@H]4C3)cnc2[C@H](C)OC)c2c3cc(ccc31)N1CCO[C@@H](C[C@H](NC(=O)OC(C)(C)C)C(=O)N3CCC[C@H](N3)C(=O)OCC(C)(C)C2)C1`, the ring closure, yield of all isomers (from CCn1c(-c2cc(N3CCN4CCCC[C@@H]4C3)cnc2[C@H](C)OC)c(CC(C)(C)CO)c2cc(N3CCO[C@@H](C[C@H](NC(=O)OC(C)(C)C)C(=O)N4CCC[C@@H](C(=O)O)N4)C3)ccc21, EDCI/HOBt/DIPEA, DMF, 11.2 mM, 25.0 °C, 16.0 h) worked out at 73%.

The molecule `CCn1c(-c2cc(N3CCN4CCCC[C@@H]4C3)cnc2[C@H](C)OC)c2c3cc(ccc31)-c1csc(n1)C[C@H](NC(=O)OC(C)(C)C)C(=O)N1CCC[C@H](N1)C(=O)OCC(C)(C)C2` had a ring closure, yield of all isomers (from CCn1c(-c2cc(N3CCN4CCCC[C@@H]4C3)cnc2[C@H](C)OC)c(CC(C)(C)CO)c2cc(-c3csc(C[C@H](NC(=O)OC(C)(C)C)C(=O)N4CCC[C@@H](C(=O)O)N4)n3)ccc21, EDCI/HOBt/DIPEA, DCM, 11.3 mM, 25.0 °C, 16.0 h) of 49%.

The molecule `CCn1c(-c2cc(N3CCN(C4CC4)CC3)cnc2[C@H](C)OC)c2c3cc(ccc31)N1CCO[C@@H](C[C@H](NC(=O)OCc3ccccc3)C(=O)N3CCC[C@H](N3)C(=O)OCC(C)(C)C2)C1` yielded a ring closure, yield of all isomers (from CCn1c(-c2cc(N3CCN(C4CC4)CC3)cnc2[C@H](C)OC)c(CC(C)(C)CO)c2cc(N3CCO[C@@H](C[C@H](NC(=O)OCc4ccccc4)C(=O)N4CCC[C@@H](C(=O)O)N4)C3)ccc21, EDCI/HOBt/DIPEA, DCM, 11.25 mM, 30.0 °C, 16.0 h) of 50%.

With `CCn1c(-c2cc(N3CCN(C(=O)OCc4ccccc4)CC3)cnc2[C@H](C)OC)c2c3cc(ccc31)-c1csc(n1)C[C@H](NC(=O)OC(C)(C)C)C(=O)N1CCC[C@H](N1)C(=O)OCC(C)(C)C2`, the ring closure, yield of all isomers (from CCn1c(-c2cc(N3CCN(C(=O)OCc4ccccc4)CC3)cnc2[C@H](C)OC)c(CC(C)(C)CO)c2cc(-c3csc(C[C@H](NC(=O)OC(C)(C)C)C(=O)N4CCC[C@@H](C(=O)O)N4)n3)ccc21, EDCI/HOBt/DIPEA, MeCN, 10.34 mM, 25.0 °C, 16.0 h) stood at 55%.

The molecule `CCn1c(-c2cc(N3CCN4CCCC[C@@H]4C3)cnc2[C@H](C)OC)c2c3cc(ccc31)-c1cccc(c1)C[C@H](NC(=O)OC(C)(C)C)C(=O)N1CCC[C@H](N1)C(=O)OCC(C)(C)C2` gave a ring closure, yield of all isomers (from CCn1c(-c2cc(N3CCN4CCCC[C@@H]4C3)cnc2[C@H](C)OC)c(CC(C)(C)CO)c2cc(-c3cccc(C[C@H](NC(=O)OC(C)(C)C)C(=O)N4CCC[C@@H](C(=O)O)N4)c3)ccc21, EDCI/HOBt/DIPEA, DCM, 5.81 mM, 25.0 °C, 16.0 h) of 34%.

Consider `CCn1c(-c2cc(N3CCN4CCOC[C@@H]4C3)cnc2[C@H](C)OC)c2c3cc(ccc31)-c1csc(n1)C[C@H](NC(=O)OC(C)(C)C)C(=O)N1CCC[C@H](N1)C(=O)OCC(C)(C)C2`, for which the ring closure, yield of all isomers (from CCn1c(-c2cc(N3CCN4CCOC[C@@H]4C3)cnc2[C@H](C)OC)c(CC(C)(C)CO)c2cc(-c3csc(C[C@H](NC(=O)OC(C)(C)C)C(=O)N4CCC[C@@H](C(=O)O)N4)n3)ccc21, EDCI/HOBt/DIPEA, DCM, 11.3 mM, 25.0 °C, 16.0 h) came to 52%.

`CCn1c(-c2cccnc2[C@H](C)OC)c2c3cc(ccc31)C1=CCCN(C1)CC(NC(=O)OC(C)(C)C)C(=O)N1CCC[C@H](N1)C(=O)OCC(C)(C)C2` (some centres unmarked) displayed a ring closure, yield of all isomers (from CCn1c(-c2cccnc2[C@H](C)OC)c(CC(C)(C)CO)c2cc(C3=CCCN(CC(NC(=O)OC(C)(C)C)C(=O)N4CCC[C@@H](C(=O)O)N4)C3)ccc21, EDCI/HOBt/DIPEA, DCM, 7.14 mM, 30.0 °C, 16.0 h) of 40%.

Take `CCn1c(-c2cc(N3CCN4CCC[C@@H]4C3)cnc2[C@H](C)OC)c2c3cc(ccc31)-c1cccc(c1)C[C@H](NC(=O)OC(C)(C)C)C(=O)N1CCC[C@H](N1)C(=O)OCC(C)(C)C2`: the ring closure, yield of all isomers (from CCn1c(-c2cc(N3CCN4CCC[C@@H]4C3)cnc2[C@H](C)OC)c(CC(C)(C)CO)c2cc(-c3cccc(C[C@H](NC(=O)OC(C)(C)C)C(=O)N4CCC[C@@H](C(=O)O)N4)c3)ccc21, EDCI/HOBt/DIPEA, DCM, 16.7 mM, 25.0 °C, 16.0 h) is 42%.

In the case of `CCn1c(-c2cccnc2[C@H](C)OC)c2c3cc(ccc31)N1CCO[C@@H](C[C@H](NC(=O)OCc3ccccc3)C(=O)N3CCC[C@H](N3)C(=O)OCC(C)(C)C2)C1`, the ring closure, yield of all isomers (from CCn1c(-c2cccnc2[C@H](C)OC)c(CC(C)(C)CO)c2cc(N3CCO[C@@H](C[C@H](NC(=O)OCc4ccccc4)C(=O)N4CCC[C@@H](C(=O)O)N4)C3)ccc21, EDCI/HOBt/DIPEA, DCM, 12.75 mM, 25.0 °C, 16.0 h) is 66%.

The molecule `CO[C@@H](C)c1ncc(N2CCN3CCOC[C@@H]3C2)cc1-c1c2c3cc(ccc3n1CC(F)(F)F)-c1cccc(c1)C[C@H](NC(=O)OC(C)(C)C)C(=O)N1CCC[C@H](N1)C(=O)OCC(C)(C)C2` showed a ring closure, yield of all isomers (from CO[C@@H](C)c1ncc(N2CCN3CCOC[C@@H]3C2)cc1-c1c(CC(C)(C)CO)c2cc(-c3cccc(C[C@H](NC(=O)OC(C)(C)C)C(=O)N4CCC[C@@H](C(=O)O)N4)c3)ccc2n1CC(F)(F)F, EDCI/HOBt/DIPEA, DCM, 5.34 mM, 25.0 °C, 16.0 h) of 98%.

Under “from CCn1c(-c2cc(N3CCN(C4CC4)CC3)cnc2[C@H](C)OC)c(CC(C)(C)CO)c2cc(C3=CCCN(C[C@H](NC(=O)OC(C)(C)C)C(=O)N4CCC[C@@H](C(=O)O)N4)C3)ccc21, EDCI/HOBt/DIPEA, DCM, 10.0 mM, 35.0 °C, 16.0 h”, `CCn1c(-c2cc(N3CCN(C4CC4)CC3)cnc2[C@H](C)OC)c2c3cc(ccc31)C1=CCCN(C1)C[C@H](NC(=O)OC(C)(C)C)C(=O)N1CCC[C@H](N1)C(=O)OCC(C)(C)C2` had a ring closure, yield of all isomers of 53%.

Molecule `CO[C@@H](C)c1ncc(N2CCN3CCCC[C@@H]3C2)cc1-c1c2c3cc(ccc3n1CC(F)(F)F)-c1cccc(c1)C[C@H](NC(=O)OC(C)(C)C)C(=O)N1CCC[C@H](N1)C(=O)OCC(C)(C)C2` had a ring closure, yield of all isomers (from CO[C@@H](C)c1ncc(N2CCN3CCCC[C@@H]3C2)cc1-c1c(CC(C)(C)CO)c2cc(-c3cccc(C[C@H](NC(=O)OC(C)(C)C)C(=O)N4CCC[C@@H](C(=O)O)N4)c3)ccc2n1CC(F)(F)F, EDCI/HOBt/DIPEA, DCM, 12.85 mM, 0.0 °C, 16.0 h) of 65%.

In turn, `CO[C@@H](C)c1ncc(N2CCN(C3CC3)CC2)cc1-c1c2c3cc(ccc3n1CC(F)(F)F)-c1csc(n1)C[C@H](NC(=O)OC(C)(C)C)C(=O)N1CCC[C@H](N1)C(=O)OCC(C)(C)C2` came in with a ring closure, yield of all isomers (from CO[C@@H](C)c1ncc(N2CCN(C3CC3)CC2)cc1-c1c(CC(C)(C)CO)c2cc(-c3csc(C[C@H](NC(=O)OC(C)(C)C)C(=O)N4CCC[C@@H](C(=O)O)N4)n3)ccc2n1CC(F)(F)F, EDCI/HOBt/DIPEA, DCM, 21.07 mM, 25.0 °C, 16.0 h) of 51%.
